For one data set, the system named is MDCK cells. Type of data set: cell-based. The settings on record: 24 h, Alamar blue. The procedure: acid group of vancomycin to yield the compounds 1-10. All the derivatives of vancomycin were purified by reverse phase HPLC to about 90 % purity with 65-75 % yield and characterized by HR-MS and 1H-NMR.
Figure S1. Cytotoxicity of VanQAmC10 against MDCK cells. The CC50 (defined as the concentration at which the viability of compound treated cells reduced to 50%) was greater […]
(1 picture or pasted object on this page, not shown here)
50 μL of serially diluted compound was added into 96 well microtiter plates. Freshly drawn, heparanized human blood was centrifuged down to obtain the erythrocytes and re-suspended to 5 vol % in PBS (pH 7.4). […] 100 μL of the supernatant from each well were transferred into fresh microtiter plates, and A540 was measured.
% haemolysis = (A - A0)/(Atotal -A0) × 100, where A is the absorbance of the test well, A 0 the absorbance of the negative controls (without compound), and A total the absorbance of 100 % hemolysis wells (with Triton X -100), all at 540 nm. […]
2 h post incubation with dye, the absorbance was measured at 570 nm using 600 nm as […]
The bactericidal activity of the compounds was evaluated with the time kill kinetics assay.
MRSA ATCC 33591 cells were cultured in nutrient media at 37°C for 6 h. […] The bacterial colonies were counted and results are represented in logarithmic scale, i.e. log10 (CFU/mL). […]
Background: Alamar Blue is a resazurin reagent that responds to reducing activity.

The subject of the next data set is persister cells of MRSA. The experiment in a line: Bactericidal activity against persister cells. Type of data set: cell-based, S. aureus. How it is done: Persister cells are a subpopulation of bacterial cultures that are refractory to antibiotic treatment.[28] […] This activity was more rapid than that observed against stationary phase cells. […]
from 10 μg/mL. The bacteria with compounds and untreated control were incubated for 18 h at 37 ̊C under shaking and OD600 was measured.
Microscopy of ΔamiAC MG1655 E. coli
ΔamiAC MG1655 was cultured overnight in LB media at 37 ̊C. Cells were then inoculated in LB media at 1:100 dilution ratio and made to grow till O.D600 0.1. The cells were then treated with 4 μg/mL concentration of vancomycin and VanQAmC10 or left untreated for 2 h. 6 μl of sample was immobilized on 1% agarose pad and microscopy was performed as described above. The experiments were performed three times independently and the images are representative of results from three independent experiments. […]
MRSA ATCC 33591 was grown to mid-log phase at 37 °C. […] The viable bacteria were then counted after 48 h incubation at 37 °C. […]
Antagonization of antibacterial activity of AAV-qC10 was determined by addition of 500 μM N,N՛-diacetyl–L-Lys–D-Ala–D-Ala or 100 μg/mL of lipoteichoic acid to serial dilutions of the test compound. The MIC was then determined against MRSA by measuring the OD600 18-24 […]
Vancomycin was chosen as control antibiotic for MRSA. The initial MIC values of VanQAmC10, vancomycin were determined against the respective bacteria. […]

The next data set relates to A. baumannii. Set-up: method as in PMID 32195571. Particulars: cited from earlier work.

Bounds are passed on as bounds.

For the molecule `CCCCCCCCCCNC(=O)C[N+](C)(C)CCCNC(=O)C1NC(=O)C2NC(=O)C(NC(=O)C3NC(=O)C(CC(N)=O)NC(=O)C(NC(=O)C(CC(C)C)NC)C(O)c4ccc(c(Cl)c4)Oc4cc3cc(c4OC3OC(CO)C(O)C(O)C3OC3CC(C)(N)C(O)C(C)O3)Oc3ccc(cc3Cl)C2O)c2ccc(O)c(c2)-c2c(O)cc(O)cc21` (stereo not drawn) [VanQAmC10 (8)], the CC50 in the data set on MDCK cells was over 64 µM. For the same molecule, in the data set with persister cells of MRSA, the “activity against persister cells” value is “concentration-dependent bactericidal activity”. The “resistance induction in A. baumannii” value in the data set with A. baumannii was “does not induce resistance”.

By CC50 is commonly meant the concentration that lowers cell viability or growth by half. Read a low CC50 as harm at low concentration.

The record behind these values is PMC9977398, “Next-generation membrane-active glycopeptide antibiotics that also inhibit bacterial cell division” (Chemical Science, 2023).
